We go through 53 compounds from BindingDB's records for doi:10.7270/Q2PR7TCX (The Scripps Research Institute Molecular Screening Center, 2007).

Counter-ions that a name gives are not always drawn.

Sequence of Steroidogenic factor 1 (Q13285 whole entry, the tested form may be a part): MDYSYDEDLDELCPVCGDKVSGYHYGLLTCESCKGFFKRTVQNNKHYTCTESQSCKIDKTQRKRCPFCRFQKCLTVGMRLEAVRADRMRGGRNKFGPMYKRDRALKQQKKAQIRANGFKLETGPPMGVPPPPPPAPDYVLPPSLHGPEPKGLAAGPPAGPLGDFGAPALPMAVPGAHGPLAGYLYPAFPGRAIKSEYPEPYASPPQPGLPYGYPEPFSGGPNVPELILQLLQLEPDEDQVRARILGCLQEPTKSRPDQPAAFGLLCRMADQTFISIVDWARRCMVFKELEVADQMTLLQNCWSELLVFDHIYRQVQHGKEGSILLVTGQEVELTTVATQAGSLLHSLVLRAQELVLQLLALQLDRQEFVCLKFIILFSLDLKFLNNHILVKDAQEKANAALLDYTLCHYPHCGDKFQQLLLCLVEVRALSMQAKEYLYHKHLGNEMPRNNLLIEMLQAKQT

The first assay has as its target Steroidogenic factor 1 (Homo sapiens, UniProt Q13285). Put plainly: inhibition of SF-1 LBD-driven luciferase – cell-based, CHO-K1, Gal4-SF-1 LBD, luciferase luminescence, counter-screen for RORA inhibitor project, dose response (AID 611).
Details: not given
For `Cc1cc(C(=O)Nc2cccc(C(=O)O)c2)oc1C` [3-[(4,5-dimethyl-2-furoyl)amino]benzoic acid], the IC50 is 2.16 µM. Still for that read-out and setting: the result for `COC(=O)c1ccc(-c2nc(-c3cccs3)no2)cc1` [4-(3-thiophen-2-yl-1,2,4-oxadiazol-5-yl)benzoic acid methyl ester] reads above 3.67 µM; that for `c1coc(CNc2ncnc3ccccc23)c1` [2-furfuryl(quinazolin-4-yl)amine;hydrochloride], 17.3 µM. `O=C(CC=Nc1ccccn1)c1ccc(Cl)cc1` [(Z)-1-(4-chlorophenyl)-3-(2-pyridinylamino)-2-propen-1-one] had an IC50 of 4.88 µM. On to `CCOC(=O)CS(=O)(=O)c1nc(-c2ccc(F)cc2)cc(C(F)(F)F)n1` [2-[4-(4-fluorophenyl)-6-(trifluoromethyl)pyrimidin-2-yl]sulfonylacetic acid ethyl ester], for which the midpoint of inhibition, the IC50, lay at 8.95 µM.

Consider `Nc1nnnn1N=C/C(Br)=C/c1ccccc1` [1-[[(Z)-2-bromanyl-3-phenyl-prop-2-enylidene]amino]-1,2,3,4-tetrazol-5-amine], for which the IC50 was found to be 4.19 µM. This IC50 is about 2.1-fold lower than that of the compound before. The same measure, in the same setting: then `COc1ccc(CC(=O)Nc2cccc(-c3nnc(-c4cccc(C)c4)o3)c2)cc1OC` [2-(3,4-dimethoxyphenyl)-N-[3-[5-(3-methylphenyl)-1,3,4-oxadiazol-2-yl]phenyl]acetamide], with 5.9 µM.

Compound `O=S1(=O)C=C(Sc2nc3ccccc3s2)c2ccccc21` [2-[(1,1-dioxido-1-benzothien-3-yl)thio]-1,3-benzothiazole] gave an IC50 of 2.67 µM. The same measure, in the same setting: then `CN(C)c1nc(N)nc(CSc2nnnn2-c2cccc3ccccc23)n1` [2-N,2-N-dimethyl-6-[(1-naphthalen-1-yltetrazol-5-yl)sulfanylmethyl]-1,3,5-triazine-2,4-diamine], with above 99 µM; and `COCCNC(=O)CSCc1nc(-c2ccc(SC)cc2)oc1C` [MLS000089367], with 0.656 µM. In the case of `CCOc1ccc(OCc2ccc(C(=O)OCc3ccccn3)o2)cc1` [5-(4-Ethoxy-phenoxymethyl)-furan-2-carboxylic acid pyridin-2-ylmethyl ester], the half-maximal inhibitory concentration (IC50) is above 11 µM.

As to `Cc1csc(SCC(=O)c2cc(C)n(Cc3cccs3)c2C)n1` [1-[2,5-dimethyl-1-(2-thenyl)pyrrol-3-yl]-2-[(4-methylthiazol-2-yl)thio]ethanone], inhibition was half-maximal at 9.88 µM (IC50). This lies in the single-digit micromolar range. Same read-out and setting: then `CCCc1ccc(-c2ccc(F)c(N)c2)nc1` [2-fluoranyl-5-(5-propylpyridin-2-yl)aniline], with 6 µM; and `CCN1C=CC(=C2C(=O)c3ccccc3C2=O)C=C1` [2-(1-ethyl-4-pyridinylidene)indene-1,3-dione], with 1.34 µM; and `COc1ccccc1-c1cc(C(F)(F)F)nc(S(=O)(=O)CCCC(=O)NC(C)C)n1` [4-[4-(2-methoxyphenyl)-6-(trifluoromethyl)pyrimidin-2-yl]sulfonyl-N-propan-2-yl-butanamide], with 9.35 µM. The same measure, in the same setting: then `N#Cc1c(NC(=O)CSc2nc[nH]n2)sc2c1CCCCC2` [N-(3-cyano-5,6,7,8-tetrahydro-4H-cyclohepta[b]thien-2-yl)-2-(1H-1,2,4-triazol-3-ylthio)acetamide], with 0.237 µM; and `COc1cccc(-c2nnc3n2N=C(C(C)(C)C)CS3)c1` [6-tert-butyl-3-(3-methoxyphenyl)-7H-[1,2,4]triazolo[3,4-b][1,3,4]thiadiazine], with 7.59 µM; and `COc1cc(CSc2nnnn2-c2ccc(C)cc2)cc(OC)c1OC` [1-(4-methylphenyl)-5-[(3,4,5-trimethoxybenzyl)thio]-1H-tetrazole], with 4.52 µM. As for `Cc1cc(C(=O)CN2C(=O)c3ccccc3S2(=O)=O)c(C)n1CC1CCCO1` (stereo not drawn) [2-[2-[2,5-dimethyl-1-(2-oxolanylmethyl)-3-pyrrolyl]-2-oxoethyl]-1,1-dioxo-1,2-benzothiazol-3-one], the 50% inhibitory concentration (IC50) came to 5.61 µM. The IC50 values of the last two compounds are within 1.5-fold of each other. The compound `CCOC(=O)c1c(N)sc(C(=O)Nc2ccc3c(c2)OCO3)c1C` [2-amino-5-(1,3-benzodioxol-5-ylcarbamoyl)-4-methyl-thiophene-3-carboxylic acid ethyl ester] registered an IC50 of 8.33 µM. As to `Cc1ccc(-c2cn3nc(C)c(C)nc3n2)cc1` [2,3-dimethyl-6-(4-methylphenyl)imidazo[1,2-b][1,2,4]triazine], the IC50 worked out at 4.13 µM. Regarding `CCc1nn2cc(-c3ccccc3)nc2s1` [2-ethyl-6-phenyl-imidazo[2,1-b][1,3,4]thiadiazole], the half-inhibitory concentration (IC50) was above 3.67 µM. `CCN(C(=O)c1ccc(C(C)(C)C)cc1)c1nnc(Cn2nnc3ccccc32)s1` [MLS000072751]: half-maximal inhibition (IC50) required 7.71 µM. The same measure, in the same setting: then `Cn1c(-c2ccccc2)cc2c3no[n+]([O-])c3ccc21` [6-methyl-3-oxidanidyl-7-phenyl-pyrrolo[2,3-g][2,1,3]benzoxadiazol-3-ium], with 6.06 µM. Same read-out and setting: then `CCn1c(C)nc2cc(-c3nc4n(n3)Cc3ccccc3-4)ccc21` [2-(1-ethyl-2-methyl-5-benzimidazolyl)-5H-[1,2,4]triazolo[5,1-a]isoindole], with above 0.00503 µM; and `CN(C)c1ccc(-c2nc3ccccc3n2C)cc1` [MLS000089904], with 6.81 µM; and `CCOC(=O)CS(=O)(=O)c1nc(-c2ccccc2)cc(C(F)(F)F)n1` [2-[4-phenyl-6-(trifluoromethyl)pyrimidin-2-yl]sulfonylacetic acid ethyl ester], with 9.74 µM.

Turning to `COCCn1c(C)cc(C(=O)COC(=O)c2[nH]nc3ccccc23)c1C` [SMR000068187], half-maximal inhibition (IC50) required 8.16 µM. The same measure, in the same setting: then `COc1cccc2sc(Nc3nc(-c4ccccn4)cs3)nc12` [(4-methoxy-1,3-benzothiazol-2-yl)-[4-(2-pyridyl)thiazol-2-yl]amine], with 3.89 µM; and `Cc1ccsc1C(=O)OCC(=O)c1cc(C)n(CC2CCCO2)c1C` (stereo not drawn) [3-methyl-2-thiophenecarboxylic acid [2-[2,5-dimethyl-1-(2-oxolanylmethyl)-3-pyrrolyl]-2-oxoethyl] ester], with above 0.0453 µM. Same read-out and setting: then `O=C1C(=CNc2ccc3c(c2)OCO3)CCc2ccccc21` [(2E)-2-[(1,3-benzodioxol-5-ylamino)methylene]tetralin-1-one], with 3.32 µM; and `C=CCOc1nc2c(c(=O)n(C)c(=O)n2C)n1Cc1ccc(Cl)cc1Cl` [7-[(2,4-dichlorophenyl)methyl]-1,3-dimethyl-8-prop-2-enoxy-purine-2,6-dione], with above 33 µM; and `CCCCOc1ncnc2c1[nH]c1ccc(F)cc12` [4-butoxy-8-fluoranyl-5H-pyrimido[5,4-b]indole], with 4.2 µM. Still for that read-out and setting: then `COc1cccc2c1C(=O)c1c(O)c3c(c(O)c1C2=O)C[C@@](O)(C(=O)CO)C[C@@H]3O[C@H]1C[C@H](N)[C@H](O)[C@H](C)O1` [MLS000028393], with 1.18 µM.

Regarding `CCCCNc1cc(C)nc(NCc2ccccc2)n1` [2-N-benzyl-4-N-butyl-6-methylpyrimidine-2,4-diamine], the IC50 was 9.37 µM. This IC50 is about 7.9-fold higher than that of the compound before. `c1ccc(-c2noc(-c3ccc4c(c3)OCO4)n2)nc1` [2-[5-(1,3-benzodioxol-5-yl)-1,2,4-oxadiazol-3-yl]pyridine] gave an IC50 of 1.26 µM. The same measure, in the same setting: then `CCN(CC)c1ccc2cc(NC(=O)CCC(=O)O)c(=O)oc2c1` [4-[[7-(diethylamino)-2-keto-chromen-3-yl]amino]-4-keto-butyric acid], with 6.07 µM; and `Oc1c(CN2CCOCC2)cc(COCc2ccccc2)c2cccnc12` [5-(benzoxymethyl)-7-(morpholinomethyl)quinolin-8-ol], with 5.97 µM. `COc1ccc(OC)c(Nc2nc(-c3ccc(O)c(O)c3)cs2)c1` [4-[2-(2,5-Dimethoxy-phenylamino)-thiazol-4-yl]-benzene-1,2-diol] came in with an IC50 of 7.17 µM. Same read-out and setting: the result for `CCc1ccc(-c2nc(CSCC(=O)NCCCN3CCCC3=O)c(C)o2)cc1` [2-({[2-(4-ethylphenyl)-5-methyl-1,3-oxazol-4-yl]methyl}thio)-N-[3-(2-oxopyrrolidin-1-yl)propyl]acetamide] reads 5.56 µM; that for `COc1ccc(-n2ncc3c(N4CCCCC4)ncnc32)cc1` [1-(4-methoxyphenyl)-4-(1-piperidinyl)pyrazolo[3,4-d]pyrimidine], 2 µM; that for `CCCCOC(=O)c1[nH]c2c(c1C)C(=O)CC(c1cc(OC)c(OC)c(OC)c1)C2` (stereo not drawn), 6.24 µM.

Staying with this assay, now noted: inactive by the depositor's call.
In turn, `CC1(C)CC(=O)C2=C(C1)Oc1nc3ccccc3cc1C2C(C#N)C#N` (stereo not drawn) [2-(1-keto-3,3-dimethyl-4,12-dihydro-2H-chromeno[2,3-b]quinolin-12-yl)malononitrile] had an IC50 of 12.2 µM.

With `Cc1ccccc1OCC(=O)Nc1ccc(N2CCN(C(=O)C(C)C)CC2)c(Cl)c1` [MLS000034491], inhibition was half-maximal at 14 µM (IC50).

For the compound `Cc1ccc(S(=O)(=O)Nc2ccc3ncccc3c2)cc1` [4-methyl-N-(6-quinolinyl)benzenesulfonamide], the IC50 came to 12.4 µM. The IC50 values of the last two compounds are within 1.5-fold of each other. Same read-out and setting: the result for `CCc1c(C)nc2ncnn2c1NCCc1ccc(OC)cc1` [(6-Ethyl-5-methyl-[1,2,4]triazolo[1,5-a]pyrimidin-7-yl)-[2-(4-methoxy-phenyl)-ethyl]-amine] reads 11.6 µM.

The compound `N#C/C(=C/c1ccc(N2CCCCCC2)o1)c1ccc(F)cc1` [MLS000051438] registered an IC50 of 18.5 µM.

`CCOC(=O)c1c(C)[nH]c(C(=O)C(C)OC(=O)c2cccc(OCc3c(C)noc3C)c2)c1C` (stereo not drawn) [MLS000054923]: inhibition was half-maximal at 10.6 µM (IC50). The same measure, in the same setting: the result for `CCCOc1ccccc1C1CC(=O)Nc2cc3c(cc21)OCCO3` (stereo not drawn) [9-(2-propoxyphenyl)-2,3,8,9-tetrahydro[1,4]dioxino[2,3-g]quinolin-7(6H)-one] reads 10.6 µM; that for `COc1ccc(CNc2cc(C)nc3ncnn23)c(OC)c1` [(2,4-Dimethoxy-benzyl)-(5-methyl-[1,2,4]triazolo[1,5-a]pyrimidin-7-yl)-amine], 23.4 µM; that for `Cc1cc(C)nc(SCC(=O)Nc2ccc(N3CCOCC3)c(Cl)c2)n1` [MLS000066583], 13.3 µM. Consider `COc1cc2c(cc1OC)C(C)N(C(=O)c1cc3ccccc3o1)CC2` (stereo not drawn) [1-benzofuran-2-yl-(6,7-dimethoxy-1-methyl-3,4-dihydro-1H-isoquinolin-2-yl)methanone], for which half-maximal inhibition (IC50) was put at 19 µM. The compound `Cc1ccccc1NC(=O)N1CCCC(c2nc(-c3ccc(C(C)C)cc3)no2)C1` (stereo not drawn) [3-[3-(4-Isopropyl-phenyl)-[1,2,4]oxadiazol-5-yl]-piperidine-1-carboxylic acid o-tolylamide] returned an IC50 of 12.4 µM.

By IC50 is commonly meant the concentration at which inhibition is half-maximal. High values mean lower potency, low ones higher potency.
